Columns and labels:
DLD-1 BRCA2(−/−) cells = assay: Cell growth inhibition assay (CellTiter-Glo), DLD-1 BRCA2(−/−); assay type: cell-based; details: Homo sapiens, DLD-1, 168 h; cell viability, CellTiter Glo 2.0, 7 days
Method: The objective of this study is to evaluate the effect of compound disclosed herein on cell proliferation through the cell viability assay in DLD-1 BRCA2(−/−) and parental isogenic pair and MDA-MB-436 (mutated BRCA1) cell lines.
DLD-1 BRCA2(−/−) and parental isogenic pair were cultured in RPMI 1640 supplemented with 10% fetal bovine serum (FBS), and MDA-MB-436 cells were cultured in DMEM supplemented with 10% FBS. Both are culture at 37° C. with 5% CO2. […] The cells were seeded into the plate in the density of 50 cells/well (DLD-1 parental), 200 cells/well (DLD-1 BRCA2−/−), or 500 cells/well (MDA-MB-436). After a short spun, the cells were cultured in a well moisturized incubator at 37° C. with 5% CO2 for 7 days without disturbance. The cell viability was measured by CellTiter Glo 2.0 assay kit (Promega, G9243), and growth inhibition rate was calculated and plotted against final compound concentration, and the data were fitted in Xfit to generate IC50.

[1] = system: MDA-MB-436 (mutated BRCA1) cells; assay: Cell growth inhibition assay (CellTiter-Glo), MDA-MB-436; assay type: cell-based; details: Homo sapiens, MDA-MB-436, 168 h; cell viability, CellTiter Glo 2.0, 7 days
Text: (§1) The objective of this study is to evaluate the effect of compound disclosed herein on cell proliferation through the cell viability assay in DLD-1 BRCA2(−/−) and parental isogenic pair and MDA-MB-436 (mutated BRCA1) cell lines. The CellTiter-Glo (CTG) based cell viability assay is designed to determine the number of viable cells in the culture because of compound effect, by quantifying ATP, which indicates the presence of metabolically active cells.
(§2) DLD-1 BRCA2(−/−) and parental isogenic pair were cultured in RPMI 1640 supplemented with 10% fetal bovine serum (FBS), and MDA-MB-436 cells were cultured in DMEM supplemented with 10% FBS. Both are culture at 37° C. with 5% CO2. Invention compounds were distributed to the 384 well plate (Corning, 3764) using Echo acoustic liquid handler to form a 1:3 serially diluted final concentration with top dose of 10 or 30 μM. The cells were seeded into the plate in the density of 50 cells/well (DLD-1 parental), 200 cells/well (DLD-1 BRCA2−/−), or 500 cells/well (MDA-MB-436). After a short spun, the cells were cultured in a well moisturized incubator at 37° C. with 5% CO2 for 7 days without disturbance. The cell viability was measured by CellTiter Glo 2.0 assay kit (Promega, G9243), and growth inhibition rate was calculated and plotted against final compound concentration, and the data were fitted in Xfit to generate IC50.

MDR1 = MDR1 (Homo sapiens (Human), UniProt P08183); assay: In vitro human transporter efflux, MDCKII cells expressing MDR1; assay type: in vitro ADME; details: for Papp A→B at 2 h, 10 μM: MDCK-MDR1, pH 7.4, apical-to-basolateral, pH7.4, read-out: MDCK-MDR1 Papp AB; for Papp A→B at 2 h, 10 μM / Papp B→A at 2 h, 10 μM: 2-hour incubation; for Papp B→A at 2 h, 10 μM: MDCK-MDR1, pH 7.4, basolateral-to-apical, pH7.4, read-out: MDCK-MDR1 Papp BA; for efflux ratio at 2 h, 10 μM: MDCK-MDR1, pH 7.4, efflux ratio Papp BA/Papp AB
Method: (§3) Madin-Darby canine kidney (MDCKII) cells expressing either MDR1 or BCRP were seeded onto Corning HTS Transwell® 96-well polycarbonate permeable (0.4 μm pore) supports at a density of 545,000 cells/cm^2. Cells were incubated for 4-8 days prior to assay, and monolayer integrity was assessed by measuring transepithelial electrical resistance (TEER). […] The final organic solvent concentration was 0.5% (v/v). Bidirectional (apical-to-basolateral and basolateral-to-apical) flux of the test and reference compounds was determined over a 2-hour incubation at 37° C. and 5% CO2 with a relative humidity of 95%. At the end of the incubation, samples from the apical and basolateral side were taken and then precipitated with acetonitrile containing internal standard. After centrifugation at 3200×g, supernatants were diluted 1:1 (v/v) with water and subjected to analysis via HPLC-MS/MS.
(§4) Apparent permeability (Papp, ×10^−6 cm/s) was calculated for all transport assays using the following equation: […]
(§5) Efflux ratio was determined by calculating the ratio of the Papp in the basolateral-to-apical direction to the Papp in the apical-to-basolateral direction using the following equation: […]

[2] = HLM stability, predicted human hepatic clearance; assay type: in vitro ADME; details: well-stirred model, 1 μM, 0.5 mg/mL microsomal protein, NADPH
Method: Working stocks of individual test articles were prepared at a concentration of 100 μM by diluting 10 mM stocks prepared in DMSO 100-fold (v:v) into ACN. Thawed hepatic microsomes were suspended in 100 mM potassium phosphate buffer, pH 7.4 to a microsomal protein concentration of 0.562 mg/mL. Diluted microsomes were combined with a solution of 10 mM NADPH, and the mixture was pre-warmed to 37° C. for 8 min. Reactions were initiated by addition of the test article working stocks to achieve a final test article concentration of 1 μM. Final microsomal protein and NADPH concentrations were 0.5 mg/mL and 1 mM, respectively. Incubations containing NADPH were run in duplicate. Test article losses mediated by non-CYP mechanisms were evaluated in a parallel set of incubations run in the absence of NADPH. Incubations lacking NADPH consisted of 1 replicate per test article. Following incubation in a 37° C. water bath, aliquots of individual reactions were quenched with cold ACN containing internal standards at […], 15-, 30-, 60-, 90-, and 120-min. Precipitated protein was pelleted via refrigerated centrifugation. Supernatants were diluted into an equal volume of pure water and mixed well prior to analysis via LC-MS/MS. In vitro intrinsic clearances (CLint) in μL/min/mg were determined for each incubation from calculated in vitro half-lives determined using a standard log-linear regression approach. In vitro CLint values were scaled up using the following physiological scaling factors: 40 mg microsomal protein/g human liver and 25.7 g human liver/kg body weight.

[3] = hHEP stability, predicted human hepatic clearance; assay type: in vitro ADME; details: well-stirred model, 0.5×10^6 viable cells/mL
Method: Working stocks of individual test articles were prepared at concentrations of 100 μM by diluting 10 mM stocks prepared in DMSO 100-fold (v:v) into ACN/H2O (50/50, v:v). Human cryopreserved hepatocytes were thawed in a 37° C. water bath in <2 min., suspended in thawing media, and then centrifuged at 100×g for 10 min. Thawing media was aspirated, and pelleted hepatocytes were resuspended into incubation media at 1.5×10^6 cells/mL. Cell viability was determined using an Acridine Orange/Propidium Iodine stain, and hepatocytes were further diluted with incubation media to 0.5×10^6 viable cells/mL. Hepatocyte aliquots of 198 μL were added to wells of a 96-well plate, and test article incubations were initiated by the addition of 2 μL of 100 μM working stocks. Plates were incubated at 37° C. in a 5% CO2 atmosphere at 95% relative humidity on an orbital shaker at 300 rpm. Incubations were performed in duplicate. Following incubation, aliquots of individual reactions were terminated by addition of ACN containing internal standards at 0, 30-, 60-, 90-, 120-, and 240-min. Precipitated protein was pelleted via refrigerated centrifugation. Supernatants were diluted into an equal volume of pure water and mixed well prior to analysis via LC-MS/MS. In vitro intrinsic clearances (CLint) in μL/min/10^6 cells were determined for each incubation from calculated in vitro half-lives determined using a standard log-linear regression approach. In vitro CLint values were scaled up using the following physiological scaling factors: 99×10^6 cells/g human liver and 25.7 g human liver/kg body weight.

DLD-1 parental cells = assay: Cell growth inhibition assay (CellTiter-Glo), DLD-1 parental; assay type: cell-based; details: Homo sapiens, DLD-1, 168 h; cell viability, CellTiter Glo 2.0, 7 days
Text: as §1, §2

BCRP = BCRP (Homo sapiens (Human), UniProt Q9UNQ0); assay: In vitro human transporter efflux, MDCKII cells expressing BCRP; assay type: in vitro ADME; details: for Papp A→B at 2 h, 10 μM: pH 7.4, apical-to-basolateral, pH7.4, read-out: BCRP Papp AB; for Papp A→B at 2 h, 10 μM / Papp B→A at 2 h, 10 μM: 2-hour incubation; for Papp B→A at 2 h, 10 μM: pH 7.4, basolateral-to-apical, pH7.4, read-out: BCRP Papp BA; for efflux ratio at 2 h, 10 μM: pH 7.4, efflux ratio Papp BA/Papp AB
Method: as §3, §4, §5

PARP1 = PARP1 (Homo sapiens (Human), UniProt P09874); assay: Biochemical fluorescence polarization (FP) assay, PARPi-FL displacement, PARP1; assay type: binding; details: 20 nM protein, 3 nM PARPi-FL, 4 h at room temperature
Method: (§6) To characterize our compounds, we utilized an assay measuring the displacement of a commercially available fluorescently labeled PARP 1/2 inhibitor (PARPi-FL, Tocris Biosciences, #6461) as exemplified in assays performed in WO2014/064149 and WO2021/013735A1. The assay was performed utilizing the following method: Compounds were dissolved in DMSO an Echo550 liquid handler was utilized to make serial dilations in the desired concentration range in Optiplate-384F plates. 100% DMSO was used for the high (with protein) and low (without protein) control samples. 20 nL of compound or DMSO alone was added to individual assay plate wells. […] The PARPi-FL was then added at a final concentration of 3 nM. The assay plate is centrifuged at 1000 rpm for 1 min and incubated for 4 h at room temperature. […] XLFit (equation 201) is used to calculate a reported IC50 for each compound.

PARP2 = PARP2 (Homo sapiens (Human), UniProt Q9UGN5); assay: Biochemical fluorescence polarization (FP) assay, PARPi-FL displacement, PARP2; assay type: binding; details: 20 nM protein, 3 nM PARPi-FL, 4 h at room temperature
Method: as §6

Sequence of BCRP (Q9UNQ0 whole entry): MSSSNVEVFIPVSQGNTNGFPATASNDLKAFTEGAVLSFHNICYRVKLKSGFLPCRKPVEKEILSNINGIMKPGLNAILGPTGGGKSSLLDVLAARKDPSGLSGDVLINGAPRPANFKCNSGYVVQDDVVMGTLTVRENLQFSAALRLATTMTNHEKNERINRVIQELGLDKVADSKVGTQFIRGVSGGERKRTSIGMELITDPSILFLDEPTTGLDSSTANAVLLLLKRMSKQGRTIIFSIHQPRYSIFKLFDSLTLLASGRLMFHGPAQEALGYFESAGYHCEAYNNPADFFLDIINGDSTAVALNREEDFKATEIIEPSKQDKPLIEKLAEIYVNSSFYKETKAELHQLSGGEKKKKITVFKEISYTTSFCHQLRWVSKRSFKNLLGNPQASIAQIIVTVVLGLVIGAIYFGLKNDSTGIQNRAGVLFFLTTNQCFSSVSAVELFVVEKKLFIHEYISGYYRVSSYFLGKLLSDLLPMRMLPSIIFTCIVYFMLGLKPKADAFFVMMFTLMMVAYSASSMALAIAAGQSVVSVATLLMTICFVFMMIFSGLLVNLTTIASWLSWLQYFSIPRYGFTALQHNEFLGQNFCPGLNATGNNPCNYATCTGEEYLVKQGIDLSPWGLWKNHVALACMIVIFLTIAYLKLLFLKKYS
Sequence of MDR1 (P08183 whole entry): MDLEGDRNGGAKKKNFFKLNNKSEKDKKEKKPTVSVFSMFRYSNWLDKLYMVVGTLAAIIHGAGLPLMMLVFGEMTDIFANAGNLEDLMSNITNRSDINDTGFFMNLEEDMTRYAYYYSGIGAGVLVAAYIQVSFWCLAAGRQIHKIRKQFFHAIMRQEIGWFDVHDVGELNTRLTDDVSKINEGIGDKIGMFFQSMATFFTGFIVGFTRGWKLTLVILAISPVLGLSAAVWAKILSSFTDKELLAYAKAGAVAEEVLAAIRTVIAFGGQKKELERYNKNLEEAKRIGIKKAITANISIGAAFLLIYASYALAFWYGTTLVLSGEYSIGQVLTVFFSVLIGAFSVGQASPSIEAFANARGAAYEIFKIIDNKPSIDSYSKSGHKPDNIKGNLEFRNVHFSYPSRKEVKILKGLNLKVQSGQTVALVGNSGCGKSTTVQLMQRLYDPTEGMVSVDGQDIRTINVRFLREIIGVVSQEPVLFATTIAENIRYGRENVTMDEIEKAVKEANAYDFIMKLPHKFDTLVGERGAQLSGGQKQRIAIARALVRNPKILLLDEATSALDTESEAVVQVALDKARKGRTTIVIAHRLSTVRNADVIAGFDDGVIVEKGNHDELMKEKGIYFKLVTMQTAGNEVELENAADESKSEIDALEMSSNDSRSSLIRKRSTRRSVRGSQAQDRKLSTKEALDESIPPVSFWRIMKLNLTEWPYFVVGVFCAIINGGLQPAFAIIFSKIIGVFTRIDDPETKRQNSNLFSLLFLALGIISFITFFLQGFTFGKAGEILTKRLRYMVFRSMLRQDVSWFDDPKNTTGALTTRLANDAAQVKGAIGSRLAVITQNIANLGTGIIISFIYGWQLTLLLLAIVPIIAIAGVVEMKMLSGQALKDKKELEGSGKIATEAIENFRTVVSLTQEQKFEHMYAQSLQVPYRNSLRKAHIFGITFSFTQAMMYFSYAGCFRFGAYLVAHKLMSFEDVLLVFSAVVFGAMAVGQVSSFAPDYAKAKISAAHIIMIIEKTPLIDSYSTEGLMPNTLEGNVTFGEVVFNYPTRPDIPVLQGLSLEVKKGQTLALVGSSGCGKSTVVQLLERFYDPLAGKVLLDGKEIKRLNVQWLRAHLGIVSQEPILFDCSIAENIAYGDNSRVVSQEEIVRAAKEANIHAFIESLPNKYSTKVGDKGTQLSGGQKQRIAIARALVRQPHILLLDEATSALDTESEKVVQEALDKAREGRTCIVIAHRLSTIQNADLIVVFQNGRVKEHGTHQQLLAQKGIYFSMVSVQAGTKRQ
Sequence of PARP1 (P09874 whole entry): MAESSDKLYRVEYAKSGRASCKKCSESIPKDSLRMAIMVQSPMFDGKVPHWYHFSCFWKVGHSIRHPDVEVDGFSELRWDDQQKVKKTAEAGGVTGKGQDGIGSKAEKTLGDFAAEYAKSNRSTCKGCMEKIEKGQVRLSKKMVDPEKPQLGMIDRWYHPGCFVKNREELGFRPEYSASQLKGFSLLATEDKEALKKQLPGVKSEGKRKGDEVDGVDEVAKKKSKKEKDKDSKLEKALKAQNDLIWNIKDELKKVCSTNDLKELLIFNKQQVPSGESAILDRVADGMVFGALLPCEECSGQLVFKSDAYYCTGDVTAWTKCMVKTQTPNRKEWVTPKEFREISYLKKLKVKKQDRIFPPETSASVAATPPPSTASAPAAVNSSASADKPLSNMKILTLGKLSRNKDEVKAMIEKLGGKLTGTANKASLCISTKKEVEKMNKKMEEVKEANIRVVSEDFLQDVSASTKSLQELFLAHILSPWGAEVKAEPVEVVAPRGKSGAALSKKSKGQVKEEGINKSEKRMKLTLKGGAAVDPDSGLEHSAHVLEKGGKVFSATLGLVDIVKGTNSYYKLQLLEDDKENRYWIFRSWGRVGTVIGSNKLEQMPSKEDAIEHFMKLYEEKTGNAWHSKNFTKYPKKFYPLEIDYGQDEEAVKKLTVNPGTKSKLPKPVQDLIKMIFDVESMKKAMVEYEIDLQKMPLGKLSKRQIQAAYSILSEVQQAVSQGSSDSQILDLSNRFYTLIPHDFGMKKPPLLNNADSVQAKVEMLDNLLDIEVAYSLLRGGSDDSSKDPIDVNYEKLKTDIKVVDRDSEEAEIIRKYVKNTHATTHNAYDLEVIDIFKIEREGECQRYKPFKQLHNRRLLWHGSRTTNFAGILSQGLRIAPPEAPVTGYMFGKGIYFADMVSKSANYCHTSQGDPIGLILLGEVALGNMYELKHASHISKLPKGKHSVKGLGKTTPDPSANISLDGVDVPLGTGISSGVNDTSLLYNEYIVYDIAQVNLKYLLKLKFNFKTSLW
Sequence of PARP2 (Q9UGN5 whole entry): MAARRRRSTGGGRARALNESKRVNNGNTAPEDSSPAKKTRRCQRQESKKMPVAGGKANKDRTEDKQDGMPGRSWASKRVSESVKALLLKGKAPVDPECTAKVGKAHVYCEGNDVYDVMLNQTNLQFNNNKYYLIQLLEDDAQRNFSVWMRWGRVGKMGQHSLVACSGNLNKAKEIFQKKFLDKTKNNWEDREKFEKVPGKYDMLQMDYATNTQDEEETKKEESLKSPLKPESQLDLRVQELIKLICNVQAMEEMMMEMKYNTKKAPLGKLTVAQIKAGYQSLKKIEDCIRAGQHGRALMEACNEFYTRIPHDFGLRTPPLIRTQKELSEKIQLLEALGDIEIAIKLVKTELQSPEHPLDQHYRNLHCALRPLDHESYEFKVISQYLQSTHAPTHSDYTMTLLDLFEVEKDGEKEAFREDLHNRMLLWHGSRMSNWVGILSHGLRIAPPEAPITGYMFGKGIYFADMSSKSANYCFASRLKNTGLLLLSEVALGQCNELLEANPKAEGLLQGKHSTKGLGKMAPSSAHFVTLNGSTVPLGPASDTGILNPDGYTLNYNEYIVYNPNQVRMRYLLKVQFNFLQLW

Row | SMILES | EC50 (DLD-1 BRCA2(−/−) cells) [nM] | EC50 [1] [nM] | Papp A→B at 2 h, 10 μM (MDR1) [×10⁻⁶ cm/s] | Papp B→A at 2 h, 10 μM (MDR1) [×10⁻⁶ cm/s] | HLM Clh [2] [mL/min/kg] | efflux ratio at 2 h, 10 μM (MDR1) | Papp A→B at 2 h, 10 μM (BCRP) [×10⁻⁶ cm/s] | Papp B→A at 2 h, 10 μM (BCRP) [×10⁻⁶ cm/s] | efflux ratio at 2 h, 10 μM (BCRP) | IC50 (PARP1) [nM] | IC50 (PARP2) [µM] | HHEP Clh [3] [mL/min/kg] | EC50 (DLD-1 parental cells) [µM]
1 | CNC(=O)c1ccc(N2CCN(Cc3ccc4c5c(c(=O)[nH]c4c3)CCO5)CC2)c(C)n1 [Comp. Ex. 1, N,6-dimethyl-5-[4-({4-oxo-2H,3H,5H-furo[3,2-c]quinolin-7-yl}methyl)piperazin-1-yl]pyridine-2-carboxamide, reference compound] | 2 | 0.6 | 7.5 | 39.8 | <4 |  |  |  |  |  |  | <3.3 | 
2 | CNC(=O)c1ccc(N2CCN(Cc3ccc4c5c(c(=O)[nH]c4c3)CCO5)CC2)c(Cl)n1 [Comp. Ex. 2, 6-chloro-N-methyl-5-[4-({4-oxo-2H,3H,5H-furo[3,2-c]quinolin-7-yl}methyl)piperazin-1-yl]pyridine-2-carboxamide, reference compound] | 1.7 | 0.7 | 5.7 | 29 | 4.2 | 5.1 |  |  |  |  |  | 6.6 | 
3 | CNC(=O)c1ccc(N2CCN(Cc3cc(F)c4c5c(c(=O)[nH]c4c3)COC5)CC2)c(F)n1 [Comp. Ex. 3, 6-fluoro-5-(4-((9-fluoro-4-oxo-1,3,4,5-tetrahydrofuro[3,4-c]quinolin-7-yl)methyl)piperazin-1-yl)-N-methylpicolinamide, reference compound] | 1.6 | 0.4 | 6.6 | 32.3 | 7.2 | 5 |  |  |  |  |  | 7.1 | 

Further lines, with some results ahead:

Row | EC50 (DLD-1 BRCA2(−/−) cells) [nM] | EC50 [1] [nM] | Papp A→B at 2 h, 10 μM (MDR1) [×10⁻⁶ cm/s] | Papp B→A at 2 h, 10 μM (MDR1) [×10⁻⁶ cm/s] | HLM Clh [2] [mL/min/kg] | efflux ratio at 2 h, 10 μM (MDR1) | Papp A→B at 2 h, 10 μM (BCRP) [×10⁻⁶ cm/s] | Papp B→A at 2 h, 10 μM (BCRP) [×10⁻⁶ cm/s] | efflux ratio at 2 h, 10 μM (BCRP) | IC50 (PARP1) [nM] | IC50 (PARP2) [µM] | SMILES | HHEP Clh [3] [mL/min/kg] | EC50 (DLD-1 parental cells) [µM]
4 | 4.1 | 2.9 | 15.9 | 29.6 |  | 1.87 | 21.7 | 20.4 | 0.95 |  |  | CNC(=O)c1ccc(N2CCN(Cc3ccc4c([nH]c(=O)c5ccnn54)c3F)CC2)c(F)n1 [Example 1, 6-fluoro-5-[4-({6-fluoro-4-oxo-5H-pyrazolo[1,5-a]quinoxalin-7-yl}methyl)piperazin-1-yl]-N-methylpyridine-2-carboxamide] |  | > 30
5 | 3.2 | 1.6 | 19.4 | 31.4 | <4 |  | 26.7 | 24.3 |  |  |  | CNC(=O)c1ccc(N2CCN(Cc3ccc4c5c(c(=O)[nH]c4c3F)CCO5)CC2)c(F)n1 [Example 9, 6-fluoro-5-[4-({6-fluoro-4-oxo-2H,3H,5H-furo[3,2-c]quinolin-7-yl}methyl)piperazin-1-yl]-N-methylpyridine-2-carboxamide] | <3.3 | > 30
6 | 1.9 | 1.2 | 15.2 | 22.7 |  | 1.5 | 21.1 | 18.2 | 0.87 | 6.2 | > 100 | [2H]C([2H])([2H])NC(=O)c1ccc(N2CCN(Cc3ccc4c([nH]c(=O)c5ccnn54)c3F)CC2)c(F)n1 [Example 18] |  | > 30
